# Biological target: CCR2 (Homo sapiens (Human), UniProt P41597)
# Assay: MCP-1 Receptor Binding Assay in THP-1 Cells;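 further: THP-1 is a human monocytic cell line, and nonspecific binding was defined with 1 µM unlabeled MCP-1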
# Details: 0.5 nM 125I labeled MCP-1, 2 hours at 30° C., read-out: Inhibition of MCP-1 Binding IC50 MCP1B
# CCR2, sequence (P41597 whole entry): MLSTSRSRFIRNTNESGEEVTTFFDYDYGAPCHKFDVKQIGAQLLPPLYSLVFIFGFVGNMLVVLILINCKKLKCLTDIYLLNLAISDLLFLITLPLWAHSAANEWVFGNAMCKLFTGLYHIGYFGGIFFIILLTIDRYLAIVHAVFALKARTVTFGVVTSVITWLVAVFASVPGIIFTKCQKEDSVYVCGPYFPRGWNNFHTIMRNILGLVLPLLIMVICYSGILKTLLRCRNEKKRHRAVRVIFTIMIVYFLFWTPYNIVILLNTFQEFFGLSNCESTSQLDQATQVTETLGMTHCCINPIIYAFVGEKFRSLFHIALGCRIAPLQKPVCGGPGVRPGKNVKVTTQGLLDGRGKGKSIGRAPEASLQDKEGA
row,IC50 [µM],SMILES
1,2.56,"CC(C)[C@@H](O)[C@H]1CC[C@H](N2CC(NC(=O)CNc3cnnc4ccc(C(F)(F)F)cc34)C2)CC1 (racemic) [Example 158, N-(1-((1R,4r)-4-((R)-1-hydroxy-2-methylpropyl)cyclohexyl)azetidin-3-yl)-2-((6-(trifluoromethyl)cinnolin-4-yl)amino)acetamide]"
2,8.29,"CC(C)[C@@H](O)[C@H]1CC[C@@H](N2CC(NC(=O)CNc3nncc4ccc(C(F)(F)F)cc34)C2)CC1 (racemic) [Example 159, N-(1-((1R,4s)-4-((S)-1-hydroxy-2-methylpropyl)cyclohexyl)azetidin-3-yl)-2-((7-(trifluoromethyl)phthalazin-1-yl)amino)acetamide]"
3,0.022,"CC(C)[C@H](O)[C@H]1CC[C@H](N2CC(NC(=O)CNc3nncc4ccc(C(F)(F)F)cc34)C2)CC1 (racemic) [Example 160, N-(1-((1S,4r)-4-((S)-1-hydroxy-2-methylpropyl)cyclohexyl)azetidin-3-yl)-2-((7-(trifluoromethyl)phthalazin-1-yl)amino)acetamide]"
4,0.025,"O=C(CNc1ncnc2ccc(C(F)(F)F)cc12)NC1CN(C2CCC([C@@H](O)C3CC3)CC2)C1 (single isomer, unassigned; (+)) [(+) 6]"
5,0.044,"CC(C)[C@H](O)C1CCC(N2CC(NC(=O)CNc3ncnc4ccc(C(F)(F)F)cc34)C2)CC1 (single isomer, unassigned; (+)) [(+) 8]"
6,0.008,"O=C(CNc1ncnc2ccc(C(F)(F)F)cc12)NC1CN(C2CCC([C@@H](O)C3CC3)CC2)C1 (single isomer, unassigned; (-)) [(−) 6]"
7,0.01,"CC(C)[C@H](O)C1CCC(N2CC(NC(=O)CNc3ncnc4ccc(C(F)(F)F)cc34)C2)CC1 (single isomer, unassigned; (-)) [(−) 8]"
8,0.43,"CC[C@@H](O)[C@H]1CC[C@@H](N2CC(NC(=O)CNc3nccc4ncc(C(F)(F)F)cc34)C2)CC1 (stereo in doubt) [Example 150, N-(1-((1R,4s)-4-((S)-1-hydroxypropyl)cyclohexyl)azetidin-3-yl)-2-((3-(trifluoromethyl)-1,6-naphthyridin-5-yl)amino)acetamide]"
9,0.015,"CC[C@@H](O)[C@H]1CC[C@@H](N2CC(NC(=O)CNc3nncc4ccc(C(F)(F)F)cc34)C2)CC1 (stereo in doubt) [Example 153, N-(1-((1R,4s)-4-((S)-1-hydroxypropyl)cyclohexyl)azetidin-3-yl)-2-((7-(trifluoromethyl)phthalazin-1-yl)amino)acetamide]"
10,> 25,"CC(C)[C@@H](O)[C@H]1CC[C@@H](N2CC(NC(=O)CNc3nccc4ncc(C(F)(F)F)cc34)C2)CC1 (stereo in doubt) [Example 155, N-(1-((1R,4s)-4-((S)-1-hydroxy-2-methylpropyl)cyclohexyl)azetidin-3-yl)-2-((3-(trifluoromethyl)-1,6-naphthyridin-5-yl)amino)acetamide]"
11,0.024,"O=C(CNc1ncnc2ccc(C(F)(F)F)cc12)NC1CN([C@H]2CC[C@@H]([C@@H](O)C3CC3)CC2)C1 [(+) 4, N-(1-((1S,4s)-4-(cyclopropyl(hydroxy)methyl)cyclohexyl)azetidin-3-yl)-2-((6-(trifluoromethyl)quinazolin-4-yl)amino)acetamide]"
12,0.008,"O=C(CNc1ncnc2ccc(C(F)(F)F)cc12)NC1CN([C@H]2CC[C@@H]([C@@H](O)C3CC3)CC2)C1 [(−) 4, N-(1-((1S,4s)-4-(cyclopropyl(hydroxy)methyl)cyclohexyl)azetidin-3-yl)-2-((6-(trifluoromethyl)quinazolin-4-yl)amino)acetamide]"
13,0.004,"O=C(CNc1ncnc2ccc(C(F)(F)F)cc12)NC1CN(C2CCC(c3ncccc3O)CC2)C1 (stereo not drawn) [Example 1, N-(1-(4-(3-hydroxypyridin-2-yl)cyclohexyl)azetidin-3-yl)-2-((6-(trifluoromethyl)quinazolin-4-yl)amino)acetamide]"
14,0.005,"O=C(CNc1ncnc2ccc(C(F)(F)F)cc12)NC1CN([C@H]2CC[C@@H](C3CC=CCO3)CC2)C1 (stereo partly drawn) [Example 2, N-(1-((1S,4s)-4-(−3,6-dihydro-2H-pyran-2-yl)cyclohexyl)azetidin-3-yl)-2-((6-(trifluoromethyl)quinazolin-4-yl)amino)acetamide and N-(1-((1S,4r)-4-(3,6-dihydro-2H-pyran-2-yl)cyclohexyl)azetidin-3-yl)-2((6-(trifluoromethyl)quinazolin-4-yl)amino)acetamide]"
15,0.022,"O=C(CNc1ncnc2ccc(C(F)(F)F)cc12)NC1CN([C@H]2CC[C@@H](C(O)C3CC3)CC2)C1 (stereo partly drawn) [Example 3, N-(1-((1S,4s)-4-(cyclopropyl(hydroxy)methyl)cyclohexyl)azetidin-3-yl)-2-((6-(trifluoromethyl)quinazolin-4-yl)amino)acetamide]"
16,0.014,"[2H][C@]1(N2CC(NC(=O)CNc3ncnc4ccc(C(F)(F)F)cc34)C2)CC[C@@H](C(O)C2CC2)CC1 (stereo partly drawn) [Example 5, N-(1-((1S,4s)-4-(cyclopropyl(hydroxy)methyl)1-deuterocyclohexyl)azetidin-3-yl)-2-((6-(trifluoromethyl)quinazolin-4-yl)amino)acetamide]"
17,0.009,"CC(C)C(O)[C@H]1CC[C@@H](N2CC(NC(=O)CNc3ncnc4ccc(C(F)(F)F)cc34)C2)CC1 (stereo partly drawn) [Example 7, N-(1-((1S,4s)-4-(1-hydroxy-2-methylpropyl)cyclohexyl)azetidin-3-yl)-2-((6-(trifluoromethyl)quinazolin-4-yl)amino)acetamide]"
18,0.009,"C=C[C@H]1CC[C@@H](N2CC(NC(=O)CNc3ncnc4ccc(C(F)(F)F)cc34)C2)CC1 [Example 9, 2-((6-(trifluoromethyl)quinazolin-4-yl)amino)-N-(1-((1s,4s)-4-vinylcyclohexyl)azetidin-3-yl)acetamide and 2-((6-(trifluoromethyl)quinazolin-4-yl)amino)-N-(1-((1r,4r)-4-vinylcyclohexyl)azetidin-3-yl)acetamide]"
19,0.009,"O=C(CNc1ncnc2ccc(C(F)(F)F)cc12)NC1CN([C@H]2CC[C@@H](C3C=CCO3)CC2)C1 (stereo partly drawn) [Example 10, N-(1-((1R,4s)-4-(2,5-dihydrofuran-2-yl)cyclohexyl)azetidin-3-yl)-2-((6-(trifluoromethyl)quinazolin-4-yl)amino)acetamide and N-(1-((1R,4r)-4-(2,5-dihydrofuran-2-yl)cyclohexyl)azetidin-3-yl)-2-((6-(trifluoromethyl)quinazolin-4-yl)amino)acetamide]"
20,0.012,"O=C1C=CCC([C@H]2CC[C@@H](N3CC(NC(=O)CNc4ncnc5ccc(C(F)(F)F)cc45)C3)CC2)N1 (stereo partly drawn) [Example 11, N-(1-((1S,4s)-4-(6-oxo-1,2,3,6-tetrahydropyridin-2-yl)cyclohexyl)azetidin-3-yl)-2-((6-(trifluoromethyl)quinazolin-4-yl)amino)acetamide]"
21,0.01,"O=C(CNc1ncnc2ccc(C(F)(F)F)cc12)NC1CN([C@H]2CC[C@@H](C3CCCC(=O)N3)CC2)C1 (stereo partly drawn) [Example 13, N-(1-((1S,4s)-4-(6-oxopiperidin-2-yl)cyclohexyl)azetidin-3-yl)-2-((6-(trifluoromethyl)quinazolin-4-yl)amino)acetamide]"
22,0.015,"O=C(CNc1ncnc2ccc(C(F)(F)F)cc12)NC1CN([C@H]2CC[C@@H](C3CCCCO3)CC2)C1 (stereo partly drawn) [Example 14, N-(1-((1S,4s)-4-(tetrahydro-2H-pyran-2-yl)cyclohexyl)azetidin-3-yl)-2-((6-(trifluoromethyl)quinazolin-4-yl)amino)acetamide]"
23,0.049,O=C(CNc1ncnc2ccc(C(F)(F)F)cc12)NC1CN([C@H]2CC[C@@H](C3CCCO3)CC2)C1 (stereo partly drawn) [Example 15]
24,0.035,"O=C(CNc1ncnc2ccc(C(F)(F)F)cc12)NC1CN([C@H]2CC[C@@H](C3COC(=O)N3)CC2)C1 (stereo partly drawn) [Example 16, N-(1-((1R,4s)-4-(2-oxooxazolidin-4-yl)cyclohexyl)azetidin-3-yl)-2-((6-(trifluoromethyl)quinazolin-4-yl)amino)acetamide]"
25,0.058,"O=C(CNc1ncnc2ccc(C(F)(F)F)cc12)NC1CN([C@H]2CC[C@@H](C3CCOC(=O)N3)CC2)C1 (stereo partly drawn) [Example 17, N-(1-((1R,4s)-4-(2-oxo-1,3-oxazinan-4-yl)cyclohexyl)azetidin-3-yl)-2-((6-(trifluoromethyl)quinazolin-4-yl)amino)acetamide]"
26,0.01,"CSCC(O)[C@H]1CC[C@@H](N2CC(NC(=O)CNc3ncnc4ccc(C(F)(F)F)cc34)C2)CC1 (stereo partly drawn) [Example 18, N-(1-((1S,4s)-4-(1-hydroxy-2-(methylthio)ethyl)cyclohexyl)azetidin-3-yl)-2-((6-(trifluoromethyl)quinazolin-4-yl)amino)acetamide]"
27,0.016,"[N-]=[N+]=NCC(O)[C@H]1CC[C@@H](N2CC(NC(=O)CNc3ncnc4ccc(C(F)(F)F)cc34)C2)CC1 (stereo partly drawn) [Example 19, N-(1-((1S,4s)-4-(2-azido-1-hydroxyethyl)cyclohexyl)azetidin-3-yl)-2-((6-(trifluoromethyl)quinazolin-4-yl)amino)acetamide]"
28,0.058,"COCC(O)[C@H]1CC[C@@H](N2CC(NC(=O)CNc3ncnc4ccc(C(F)(F)F)cc34)C2)CC1 (stereo partly drawn) [Example 20, N-(1-((1S,4s)-4-(1-hydroxy-2-methoxyethyl)cyclohexyl)azetidin-3-yl)-2-((6-(trifluoromethyl)quinazolin-4-yl)amino)acetamide]"
29,0.064,"O=C(CNc1ncnc2ccc(C(F)(F)F)cc12)NC1CN([C@H]2CC[C@@H](C3CNC(=O)O3)CC2)C1 (stereo partly drawn) [Example 22, N-(1-((1S,4s)-4-(2-oxooxazolidin-5-yl)cyclohexyl)azetidin-3-yl)-2-((6-(trifluoromethyl)quinazolin-4-yl)amino)acetamide]"
30,0.714,"CN(C)CC(O)[C@H]1CC[C@@H](N2CC(NC(=O)CNc3ncnc4ccc(C(F)(F)F)cc34)C2)CC1 (stereo partly drawn) [Example 23, N-(1-((1S,4s)-4-(2-(dimethylamino)-1-hydroxyethyl)cyclohexyl)azetidin-3-yl)-2-((6-(trifluoromethyl)quinazolin-4-yl)amino)acetamide]"
